Measured values from ChEMBL document CHEMBL3885861, “Open TG-GATES”.

Species: Rattus norvegicus
Test: Open TG-GATES - Regimen: Daily Repeat
Type: toxicity, organism-based, Sprague-Dawley
Set-up: regimen Daily Repeat, gender Male, age 6 weeks
Details: in vivo, po, route gavage; for APTT / Bas / Eos / Fbg / Hb / Ht / Lym / MCHC / MCV / Mono / Neu / PT / Plat / RBC / Ret / WBC: tissue Blood; for KIDNEY_L / KIDNEY_R / KIDNEY_TOTAL: tissue Kidney; for LIVER: tissue Liver; for ALP / ALT / AST / BUN / CRE / Ca / Cl / DBIL / GLC / IP / K / LDH / Na / PL / RALB / TBIL / TC / TG / TP / gamma-GTP: tissue Plasma
[1] = 50 mg/kg, 72 h, dose level Middle, time 3 day
[2] = 50 mg/kg, […], dose level Middle, time 7 day
[3] = 50 mg/kg, […], dose level Middle, time 14 day
[4] = 50 mg/kg, […], dose level Middle, time 28 day
[5] = 150 mg/kg, 72 h, dose level High, time 3 day
[6] = 150 mg/kg, […], dose level High, time 7 day
[7] = 150 mg/kg, […], dose level High, time 14 day
[8] = 150 mg/kg, […], dose level High, time 28 day

C1CCC(C(CC2CCCCN2)C2CCCCC2)CC1 (stereo not drawn) [PERHEXILINE]
TERMINAL_BW [1]: 222.3 g
APTT [1]: 19.9 s
Bas [1]: 0%
Eos [1]: 1%
Fbg [1]: 339.8 mg/dL
Hb [1]: 13.5 g/dL
Ht [1]: 40.4%
Lym [1]: 72.2%
MCHC [1]: 33.4%
MCV [1]: 62.8 fL
Mono [1]: 2.2%
Neu [1]: 23.2%
PT [1]: 16.5 s
Plat [1]: 125.7 x10_4/uL
RBC [1]: 643.2 x10_4/ul
Ret [1]: 6.1%
WBC [1]: 117.4 x10_2/uL
KIDNEY_L [1]: 1 g
KIDNEY_R [1]: 1 g
KIDNEY_TOTAL [1]: 2.1 g
LIVER [1]: 10.7 g
ALP [1]: 1647.4 IU/L
ALT [1]: 40 IU/L
AST [1]: 70.2 IU/L
BUN [1]: 13.6 mg/dL
CRE [1]: 0.1 mg/dL
Ca [1]: 10.8 mg/dL
Cl [1]: 107 meq/L
DBIL [1]: 0 mg/dL
GLC [1]: 184.8 mg/dL
IP [1]: 7.6 mg/dL
K [1]: 4.1 meq/L
LDH [1]: 241.2 IU/L
Na [1]: 141.8 meq/L
PL [1]: 146.8 mg/dL
RALB [1]: 3 g/dL
TBIL [1]: 0.008 mg/dL
TC [1]: 72.8 mg/dL
TG [1]: 125 mg/dL
TP [1]: 5.6 g/dL
gamma-GTP [1]: 0.8 IU/L
TERMINAL_BW [2]: 248.7 g
TERMINAL_BW [3]: 302.3 g
TERMINAL_BW [4]: 361.8 g
APTT [2]: 22.2 s
Bas [2]: 0%
Eos [2]: 0.6%
Fbg [2]: 314 mg/dL
Hb [2]: 14.1 g/dL
Ht [2]: 41.6%
Lym [2]: 79.8%
MCHC [2]: 33.9%
MCV [2]: 62.6 fL
Mono [2]: 1.6%
Neu [2]: 16.6%
PT [2]: 15.8 s
Plat [2]: 113.7 x10_4/uL
RBC [2]: 666.4 x10_4/ul
Ret [2]: 4.7%
WBC [2]: 85.4 x10_2/uL
APTT [3]: 23.1 s
Bas [3]: 0%
Eos [3]: 0.4%
Fbg [3]: 303 mg/dL
Hb [3]: 14 g/dL
Ht [3]: 40.8%
Lym [3]: 82.2%
MCHC [3]: 34.3%
MCV [3]: 61.7 fL
Mono [3]: 1.4%
Neu [3]: 15%
PT [3]: 15.8 s
Plat [3]: 118.8 x10_4/uL
RBC [3]: 662.8 x10_4/ul
Ret [3]: 5.3%
WBC [3]: 116.6 x10_2/uL
APTT [4]: 22.2 s
Bas [4]: 0%
Eos [4]: 0.6%
Fbg [4]: 314 mg/dL
Hb [4]: 14.1 g/dL
Ht [4]: 41.6%
Lym [4]: 79.8%
MCHC [4]: 33.9%
MCV [4]: 62.6 fL
Mono [4]: 1.6%
Neu [4]: 16.6%
PT [4]: 15.8 s
Plat [4]: 113.7 x10_4/uL
RBC [4]: 666.4 x10_4/ul
Ret [4]: 4.7%
WBC [4]: 85.4 x10_2/uL
KIDNEY_L [2]: 1 g
KIDNEY_R [2]: 1 g
KIDNEY_TOTAL [2]: 2.1 g
KIDNEY_L [3]: 1.2 g
KIDNEY_R [3]: 1.2 g
KIDNEY_TOTAL [3]: 2.3 g
KIDNEY_L [4]: 1.3 g
KIDNEY_R [4]: 1.3 g
KIDNEY_TOTAL [4]: 2.5 g
LIVER [2]: 11.3 g
LIVER [3]: 12.9 g
LIVER [4]: 15 g
ALP [2]: 1686.4 IU/L
ALT [2]: 38.8 IU/L
AST [2]: 67 IU/L
BUN [2]: 18 mg/dL
CRE [2]: 0.2 mg/dL
Ca [2]: 10.5 mg/dL
Cl [2]: 106.2 meq/L
DBIL [2]: 0 mg/dL
GLC [2]: 202 mg/dL
IP [2]: 7.3 mg/dL
K [2]: 4.1 meq/L
LDH [2]: 192 IU/L
Na [2]: 142.8 meq/L
PL [2]: 166.2 mg/dL
RALB [2]: 3.1 g/dL
TBIL [2]: 0.004 mg/dL
TC [2]: 78.4 mg/dL
TG [2]: 181 mg/dL
TP [2]: 5.8 g/dL
gamma-GTP [2]: 1 IU/L
ALP [3]: 1470.4 IU/L
ALT [3]: 42.2 IU/L
AST [3]: 76.6 IU/L
BUN [3]: 18.6 mg/dL
CRE [3]: 0.2 mg/dL
Ca [3]: 10.7 mg/dL
Cl [3]: 107.4 meq/L
DBIL [3]: 0 mg/dL
GLC [3]: 209.8 mg/dL
IP [3]: 6.5 mg/dL
K [3]: 4.2 meq/L
LDH [3]: 231.4 IU/L
Na [3]: 143.2 meq/L
PL [3]: 155.2 mg/dL
RALB [3]: 3 g/dL
TBIL [3]: 0.002 mg/dL
TC [3]: 72.2 mg/dL
TG [3]: 178.6 mg/dL
TP [3]: 5.8 g/dL
gamma-GTP [3]: 1.6 IU/L
ALP [4]: 1171.8 IU/L
ALT [4]: 39.8 IU/L
AST [4]: 67.2 IU/L
BUN [4]: 18.8 mg/dL
CRE [4]: 0.2 mg/dL
Ca [4]: 10.4 mg/dL
Cl [4]: 107 meq/L
DBIL [4]: 0 mg/dL
GLC [4]: 209.2 mg/dL
IP [4]: 6.6 mg/dL
K [4]: 4 meq/L
LDH [4]: 186.8 IU/L
Na [4]: 143 meq/L
PL [4]: 156.4 mg/dL
RALB [4]: 3.1 g/dL
TBIL [4]: 0.004 mg/dL
TC [4]: 71.6 mg/dL
TG [4]: 157.4 mg/dL
TP [4]: 6.1 g/dL
gamma-GTP [4]: 1.4 IU/L
TERMINAL_BW [5]: 212.7 g
APTT [5]: 22.7 s
Bas [5]: 0%
Eos [5]: 0.8%
Fbg [5]: 312.8 mg/dL
Hb [5]: 13.9 g/dL
Ht [5]: 41.3%
Lym [5]: 80%
MCHC [5]: 33.8%
MCV [5]: 61.4 fL
Mono [5]: 1.8%
Neu [5]: 16.5%
PT [5]: 16.8 s
Plat [5]: 130.8 x10_4/uL
RBC [5]: 673.2 x10_4/ul
Ret [5]: 4.4%
WBC [5]: 100 x10_2/uL
KIDNEY_L [5]: 1 g
KIDNEY_R [5]: 0.9 g
KIDNEY_TOTAL [5]: 1.9 g
LIVER [5]: 9.8 g
ALP [5]: 1606.6 IU/L
ALT [5]: 43.6 IU/L
AST [5]: 69 IU/L
BUN [5]: 15.4 mg/dL
CRE [5]: 0.2 mg/dL
Ca [5]: 11 mg/dL
Cl [5]: 106.6 meq/L
DBIL [5]: 0.002 mg/dL
GLC [5]: 187.2 mg/dL
IP [5]: 7.4 mg/dL
K [5]: 4 meq/L
LDH [5]: 267.2 IU/L
Na [5]: 142.4 meq/L
PL [5]: 150 mg/dL
RALB [5]: 3 g/dL
TBIL [5]: 0.006 mg/dL
TC [5]: 75.6 mg/dL
TG [5]: 107.8 mg/dL
TP [5]: 5.4 g/dL
gamma-GTP [5]: 1 IU/L
TERMINAL_BW [6]: 255.5 g
TERMINAL_BW [7]: 291.9 g
TERMINAL_BW [8]: 322.6 g
APTT [6]: 23.3 s
Bas [6]: 0%
Eos [6]: 0.6%
Fbg [6]: 313.8 mg/dL
Hb [6]: 14.3 g/dL
Ht [6]: 42.2%
Lym [6]: 79%
MCHC [6]: 33.9%
MCV [6]: 63.4 fL
Mono [6]: 1.4%
Neu [6]: 17.8%
PT [6]: 15.5 s
Plat [6]: 120.2 x10_4/uL
RBC [6]: 665.4 x10_4/ul
Ret [6]: 5.2%
WBC [6]: 103.4 x10_2/uL
APTT [7]: 22.3 s
Bas [7]: 0%
Eos [7]: 0.8%
Fbg [7]: 311 mg/dL
Hb [7]: 14.4 g/dL
Ht [7]: 41.8%
Lym [7]: 72%
MCHC [7]: 34.4%
MCV [7]: 59.9 fL
Mono [7]: 2.2%
Neu [7]: 24%
PT [7]: 15.8 s
Plat [7]: 115.8 x10_4/uL
RBC [7]: 697.8 x10_4/ul
Ret [7]: 4.7%
WBC [7]: 121.2 x10_2/uL
APTT [8]: 23.3 s
Bas [8]: 0%
Eos [8]: 0.6%
Fbg [8]: 313.8 mg/dL
Hb [8]: 14.3 g/dL
Ht [8]: 42.2%
Lym [8]: 79%
MCHC [8]: 33.9%
MCV [8]: 63.4 fL
Mono [8]: 1.4%
Neu [8]: 17.8%
PT [8]: 15.5 s
Plat [8]: 120.2 x10_4/uL
RBC [8]: 665.4 x10_4/ul
Ret [8]: 5.2%
WBC [8]: 103.4 x10_2/uL
KIDNEY_L [6]: 1.1 g
KIDNEY_R [6]: 1.2 g
KIDNEY_TOTAL [6]: 2.3 g
KIDNEY_L [7]: 1.2 g
KIDNEY_R [7]: 1.2 g
KIDNEY_TOTAL [7]: 2.4 g
KIDNEY_L [8]: 1.2 g
KIDNEY_R [8]: 1.2 g
KIDNEY_TOTAL [8]: 2.5 g
LIVER [6]: 11.9 g
LIVER [7]: 13 g
LIVER [8]: 12.8 g
ALP [6]: 1641 IU/L
ALT [6]: 35 IU/L
AST [6]: 61.8 IU/L
BUN [6]: 17.8 mg/dL
CRE [6]: 0.2 mg/dL
Ca [6]: 10.6 mg/dL
Cl [6]: 106.2 meq/L
DBIL [6]: 0 mg/dL
GLC [6]: 197.6 mg/dL
IP [6]: 8.1 mg/dL
K [6]: 4.3 meq/L
LDH [6]: 200.4 IU/L
Na [6]: 142.8 meq/L
PL [6]: 158.4 mg/dL
RALB [6]: 3 g/dL
TBIL [6]: 0.006 mg/dL
TC [6]: 76 mg/dL
TG [6]: 138.4 mg/dL
TP [6]: 5.7 g/dL
gamma-GTP [6]: 1.4 IU/L
ALP [7]: 1470.2 IU/L
ALT [7]: 38 IU/L
AST [7]: 63.2 IU/L
BUN [7]: 18.2 mg/dL
CRE [7]: 0.2 mg/dL
Ca [7]: 10.7 mg/dL
Cl [7]: 105.8 meq/L
DBIL [7]: 0.004 mg/dL
GLC [7]: 206.6 mg/dL
IP [7]: 7.2 mg/dL
K [7]: 4.2 meq/L
LDH [7]: 180.2 IU/L
Na [7]: 143 meq/L
PL [7]: 151.8 mg/dL
RALB [7]: 3 g/dL
TBIL [7]: 0.008 mg/dL
TC [7]: 70 mg/dL
TG [7]: 154.6 mg/dL
TP [7]: 5.8 g/dL
gamma-GTP [7]: 1.2 IU/L
ALP [8]: 1254 IU/L
ALT [8]: 39.8 IU/L
AST [8]: 62.8 IU/L
BUN [8]: 16 mg/dL
CRE [8]: 0.2 mg/dL
Ca [8]: 10.4 mg/dL
Cl [8]: 107.2 meq/L
DBIL [8]: 0 mg/dL
GLC [8]: 199.2 mg/dL
IP [8]: 6.4 mg/dL
K [8]: 4 meq/L
LDH [8]: 162.8 IU/L
Na [8]: 144.2 meq/L
PL [8]: 148 mg/dL
RALB [8]: 3 g/dL
TBIL [8]: 0.006 mg/dL
TC [8]: 68 mg/dL
TG [8]: 150.4 mg/dL
TP [8]: 5.9 g/dL
gamma-GTP [8]: 1 IU/L
